{
  "source": "patent US8987250B2",
  "about": "(Gilead Sciences, Inc., priority 2012, dated 2015)",
  "data": [
    {"system": "HIV-IIIb", "assay": "Test A: Antiviral Assay in MT4 Cells", "format": "cell-based", "conditions": "Human immunodeficiency virus 1, IIIB, MT4, 120 h, Table 2; MT-4 cells infected with HIV-IIIb, 5 days of incubation, CellTiter-Glo; read-out: EC50", "outline": "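MT-4 cells pre-infected with HIV-IIIb (0.004 m.o.i.) at 37 °C, then exposed to 3-fold serial compound dilutions (10 concentrations, quadruplicate) in RPMI 1640/10% FBS. After 5 days at 37 °C, viability read by CellTiter-Glo luminescence.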", "units": {"EC50": "nM"}, "values": [
      {"smiles": "Cc1cc2nc(N3CCNC(c4ccc5c(cnn5C)c4)C3=O)sc2c(-c2ccc(Cl)cc2)c1[C@H](OC(C)(C)C)C(=O)O", "note": "(stereo partly drawn) [Compound 275, (2S)-2-tert-butoxy-2-(7-(4-chlorophenyl)-5-methyl-2-(3-(1-methyl-1H-indazol-5-yl)-2-oxopiperazin-1-yl)benzo[d]thiazol-6-yl)acetic acid]", "EC50": 21},
      {"smiles": "Cc1cc2nc(N3CCN(C(=O)OC(C)(C)C)C(c4ccc5c(cnn5C)c4)C3)sc2c(-c2ccc(Cl)cc2)c1[C@H](OC(C)(C)C)C(=O)O", "note": "(stereo partly drawn) [Compound 276, (2S)-2-tert-butoxy-2-(2-(4-(tert-butoxycarbonyl)-3-(1-methyl-1H-indazol-5-yl)piperazin-1-yl)-7-(4-chlorophenyl)-5-methylbenzo[d]thiazol-6-yl)acetic acid]", "EC50": 37},
      {"smiles": "Cc1cc2nc(N3CCNC(c4ccc5c(cnn5C)c4)C3)sc2c(-c2ccc(Cl)cc2)c1[C@H](OC(C)(C)C)C(=O)O", "note": "(stereo partly drawn) [Compound 277, (2S)-2-tert-butoxy-2-(7-(4-chlorophenyl)-5-methyl-2-(3-(1-methyl-1H-indazol-5-yl)piperazin-1-yl)benzo[d]thiazol-6-yl)acetic acid]", "EC50": 26},
      {"smiles": "Cc1cc2nc(N3CCN(C(C)C)C(c4ccc5c(cnn5C)c4)C3)sc2c(-c2ccc(Cl)cc2)c1[C@H](OC(C)(C)C)C(=O)O", "note": "(stereo partly drawn) [Compound 279, (2S)-2-tert-butoxy-2-(7-(4-chlorophenyl)-2-(4-isopropyl-3-(1-methyl-1H-indazol-5-yl)piperazin-1-yl)-5-methylbenzo[d]thiazol-6-yl)acetic acid]", "EC50": 16},
      {"smiles": "Cc1cc2nc(-c3cccc(-c4cnc(=O)n(C)c4)c3)sc2c(-c2ccc(Cl)cc2)c1[C@H](OC(C)(C)C)C(=O)O", "note": "[Compound 280, (S)-2-tert-butoxy-2-(7-(4-chlorophenyl)-5-methyl-2-(3-(1-methyl-2-oxo-1,2-dihydropyrimidin-5-yl)phenyl)benzo[d]thiazol-6-yl)acetic acid]", "EC50": 248},
      {"smiles": "Cc1cc2nc(-c3nccc(N4CCN(C)CC4)n3)sc2c(-c2ccc(Cl)cc2)c1[C@H](OC(C)(C)C)C(=O)O", "note": "[Compound 281, (S)-2-tert-butoxy-2-(7-(4-chlorophenyl)-5-methyl-2-(4-(4-methylpiperazin-1-yl)pyrimidin-2-yl)benzo[d]thiazol-6-yl)acetic acid]", "EC50": 31},
      {"smiles": "Cc1cc2nc(-c3cncc(N4CCN(C)CC4)n3)sc2c(-c2ccc(Cl)cc2)c1[C@H](OC(C)(C)C)C(=O)O", "note": "[Compound 282, (S)-2-tert-butoxy-2-(7-(4-chlorophenyl)-5-methyl-2-(6-(4-methylpiperazin-1-yl)pyrazin-2-yl)benzo[d]thiazol-6-yl)acetic acid]", "EC50": 3},
      {"smiles": "Cc1cc2nc(-c3ccc4ncn(C)c4c3)sc2c(-c2ccc(Cl)cc2)c1[C@H](OC(C)(C)C)C(=O)O", "note": "[Compound 283, (S)-2-tert-butoxy-2-(7-(4-chlorophenyl)-5-methyl-2-(1-methyl-1H-benzo[d]imidazol-6-yl)benzo[d]thiazol-6-yl)acetic acid]", "EC50": 51},
      {"smiles": "Cc1cc2nc(-c3ccc4c(c3)n(C)c(=O)n4C)sc2c(-c2ccc(Cl)cc2)c1[C@H](OC(C)(C)C)C(=O)O", "note": "[Compound 286, (S)-2-(tert-butoxy)-2-(7-(4-chlorophenyl)-2-(1,3-dimethyl-2-oxo-2,3-dihydro-1H-benzo[d]imidazol-5-yl)-5-methylbenzo[d]thiazol-6-yl)acetic acid]", "EC50": 10},
      {"smiles": "Cc1cc2nc(-c3ccc4nc[nH]c4c3)sc2c(-c2ccc(Cl)cc2)c1[C@H](OC(C)(C)C)C(=O)O", "note": "[Compound 287, (S)-2-(2-(1H-benzo[d]imidazol-6-yl)-7-(4-chlorophenyl)-5-methylbenzo[d]thiazol-6-yl)-2-(tert-butoxy)acetic acid]", "EC50": 113},
      {"smiles": "COc1cnc(-c2ccc3c(cnn3C)c2)cc1-c1nc2cc(C)c([C@H](OC(C)(C)C)C(=O)O)c(-c3ccc(Cl)cc3)c2s1", "note": "[Compound 288, (S)-2-(tert-butoxy)-2-(7-(4-chlorophenyl)-2-(5-methoxy-2-(1-methyl-1H-indazol-5-yl)pyridin-4-yl)-5-methylbenzo[d]thiazol-6-yl)acetic acid]", "EC50": 65},
      {"smiles": "Cc1cnc(-c2ccc3c(cnn3C)c2)cc1-c1nc2cc(C)c([C@H](OC(C)(C)C)C(=O)O)c(-c3ccc(Cl)cc3)c2s1", "note": "[Compound 289, (S)-2-(tert-butoxy)-2-(7-(4-chlorophenyl)-5-methyl-2-(5-methyl-2-(1-methyl-1H-indazol-5-yl)pyridin-4-yl)benzo[d]thiazol-6-yl)acetic acid]", "EC50": 25},
      {"smiles": "Cc1cc2nc(-c3cc(-c4ccc5c(cnn5C)c4)ncc3C(F)F)sc2c(-c2ccc(Cl)cc2)c1[C@H](OC(C)(C)C)C(=O)O", "note": "[Compound 290, (S)-2-(tert-butoxy)-2-(7-(4-chlorophenyl)-2-(5-(difluoromethyl)-2-(1-methyl-1H-indazol-5-yl)pyridin-4-yl)-5-methylbenzo[d]thiazol-6-yl)acetic acid]", "EC50": 87},
      {"smiles": "Cc1cc2nc(-c3cc(-c4ccc5c(cnn5C)c4)ncc3F)sc2c(-c2ccc(Cl)cc2)c1[C@H](OC(C)(C)C)C(=O)O", "note": "[Compound 291, (S)-2-(tert-butoxy)-2-(7-(4-chlorophenyl)-2-(5-fluoro-2-(1-methyl-1H-indazol-5-yl)pyridin-4-yl)-5-methylbenzo[d]thiazol-6-yl)acetic acid]", "EC50": 76},
      {"smiles": "Cc1cc2nc(-c3ccc4nc(C)n(C)c4c3)sc2c(-c2ccc(Cl)cc2)c1[C@H](OC(C)(C)C)C(=O)O", "note": "[Compound 292, (S)-2-(tert-butoxy)-2-(7-(4-chlorophenyl)-2-(1,2-dimethyl-1H-benzo[d]imidazol-6-yl)-5-methylbenzo[d]thiazol-6-yl)acetic acid]", "EC50": 23},
      {"smiles": "Cc1nc2c([nH]1)CCN(c1nc3cc(C)c([C@H](OC(C)(C)C)C(=O)O)c(-c4ccc(Cl)cc4)c3s1)C2", "note": "[Compound 293, (S)-2-tert-butoxy-2-(7-(4-chlorophenyl)-5-methyl-2-(2-methyl-6,7-dihydro-1H-imidazo[4,5-c]pyridin-5(4H)-yl)benzo[d]thiazol-6-yl)acetic acid]", "EC50": 215},
      {"smiles": "Cc1cc2nc(-c3ccc4c(c3)nc(C)n4C3CCN(C)CC3)sc2c(-c2ccc(Cl)cc2)c1[C@H](OC(C)(C)C)C(=O)O", "note": "[Compound 294, (S)-2-(tert-butoxy)-2-(7-(4-chlorophenyl)-5-methyl-2-(2-methyl-1-(1-methylpiperidin-4-yl)-1H-benzo[d]imidazol-5-yl)benzo[d]thiazol-6-yl)acetic acid]", "EC50": 36},
      {"smiles": "Cc1cc2nc(-c3ccc4c(c3)ncn4C3CCN(C)CC3)sc2c(-c2ccc(Cl)cc2)c1[C@H](OC(C)(C)C)C(=O)O", "note": "[Compound 295, (S)-2-(tert-butoxy)-2-(7-(4-chlorophenyl)-5-methyl-2-(1-(1-methylpiperidin-4-yl)-1H-benzo[d]imidazol-5-yl)benzo[d]thiazol-6-yl)acetic acid]", "EC50": 34},
      {"smiles": "Cc1cc2nc(-c3ccc4nc(C)n([C@@H]5CCN(C)C5)c4c3)sc2c(-c2ccc(Cl)cc2)c1[C@H](OC(C)(C)C)C(=O)O", "note": "[Compound 296, (S)-2-tert-butoxy-2-(7-(4-chlorophenyl)-5-methyl-2-(2-methyl-1-((R)-1-methylpyrrolidin-3-yl)-1H-benzo[d]imidazol-6-yl)benzo[d]thiazol-6-yl)acetic acid]", "EC50": 13},
      {"smiles": "Cc1cc2nc(-c3ccc4nc(C)n(C5CN(C)C5)c4c3)sc2c(-c2ccc(Cl)cc2)c1[C@H](OC(C)(C)C)C(=O)O", "note": "[Compound 297, (S)-2-tert-butoxy-2-(7-(4-chlorophenyl)-5-methyl-2-(2-methyl-1-(1-methylazetidin-3-yl)-1H-benzo[d]imidazol-6-yl)benzo[d]thiazol-6-yl)acetic acid]", "EC50": 17},
      {"smiles": "Cc1cc2nc(-c3ccc4nc(C)n(C5CNC5)c4c3)sc2c(-c2ccc(Cl)cc2)c1[C@H](OC(C)(C)C)C(=O)O", "note": "[Compound 298, (S)-2-(2-(1-(azetidin-3-yl)-2-methyl-1H-benzo[d]imidazol-6-yl)-7-(4-chlorophenyl)-5-methylbenzo[d]thiazol-6-yl)-2-tert-butoxyacetic acid]", "EC50": 181},
      {"smiles": "Cc1cc2nc(-c3ccc4nc(C)n([C@@H]5CCNC5)c4c3)sc2c(-c2ccc(Cl)cc2)c1[C@H](OC(C)(C)C)C(=O)O", "note": "[Compound 299, (S)-2-tert-butoxy-2-(7-(4-chlorophenyl)-5-methyl-2-(2-methyl-1-((R)-pyrrolidin-3-yl)-1H-benzo[d]imidazol-6-yl)benzo[d]thiazol-6-yl)acetic acid]", "EC50": 130},
      {"smiles": "Cc1cc2nc(-c3ccc4nc(C)n([C@@H]5CCN(C(C)C)C5)c4c3)sc2c(-c2ccc(Cl)cc2)c1[C@H](OC(C)(C)C)C(=O)O", "note": "[Compound 300, (S)-2-tert-butoxy-2-(7-(4-chlorophenyl)-2-(1-((R)-1-isopropylpyrrolidin-3-yl)-2-methyl-1H-benzo[d]imidazol-6-yl)-5-methylbenzo[d]thiazol-6-yl)acetic acid]", "EC50": 12},
      {"smiles": "Cc1cc2nc(-c3ccc4nc(C)n([C@H]5CCNC5)c4c3)sc2c(-c2ccc(Cl)cc2)c1[C@H](OC(C)(C)C)C(=O)O", "note": "[Compound 301, (S)-2-tert-butoxy-2-(7-(4-chlorophenyl)-5-methyl-2-(2-methyl-1-((S)-pyrrolidin-3-yl)-1H-benzo[d]imidazol-6-yl)benzo[d]thiazol-6-yl)acetic acid]", "EC50": 109},
      {"smiles": "Cc1cc2nc(-c3cnc4c(c3)nc(C)n4C)sc2c(-c2ccc(Cl)cc2)c1[C@H](OC(C)(C)C)C(=O)O", "note": "[Compound 302, (S)-2-tert-butoxy-2-(7-(4-chlorophenyl)-2-(2,3-dimethyl-3H-imidazo[4,5-b]pyridin-6-yl)-5-methylbenzo[d]thiazol-6-yl)acetic acid]", "EC50": 8},
      {"smiles": "Cc1cc2nc(-c3ccc4c(c3)[nH]c(=O)n4C)sc2c(-c2ccc(Cl)cc2)c1[C@H](OC(C)(C)C)C(=O)O", "note": "[Compound 303, (S)-2-tert-butoxy-2-(7-(4-chlorophenyl)-5-methyl-2-(1-methyl-2-oxo-2,3-dihydro-1H-benzo[d]imidazol-5-yl)benzo[d]thiazol-6-yl)acetic acid]", "EC50": 19}
    ]}
  ]
}
